Drawing on patent US20240150340A1, “CDK Inhibitors And Their Use As Pharmaceuticals” (Prelude Therapeutics Incorporated, priority 2022, published 2024), this text covers IC50 for nine compounds.

One test addresses T1, CDK2/Cyclin E2 (Homo sapiens, UniProt P24941).
T1 construct: Recombinant protein complex CDK2/Cyclin E2, expressed from insect cell, was purchased from ProQinase
The test can be described thus: CDK2/CyclinE2 Enzymatic Activity Assay (TR-FRET). The test is classed as biochemical. To be noted: ATP 1 mM final, read-out: CDK2_E1 IC50. The essentials: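 Recombinant insect-cell CDK2/Cyclin E2 (1 nM) phosphorylated ULight-4E-BP1 (50 nM) with 1 mM ATP in HEPES pH 7.4 buffer, after 20 min compound preincubation; MgCl2 (10 mM) started the 45 min reaction at 37° C. Europium anti-phospho-4E-BP1 TR-FRET read; 9-dose IC50 by 4-parameter fit.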

Another test has as its system OVCAR3 p-RB. Put plainly: pRB ICW Assay in OVCAR3 Cells. The test is classed as cell-based. To be noted: Homo sapiens, OVCAR-3, incubated with compound for 2 hours. The essentials:
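In-Cell Western on OVCAR3: phospho-RB antibody signal with DRAQ5 counterstain read at 700 and 800 nm after fixation. Compounds were applied for 2 h at 37° C. as 9-point ½-log dilutions in duplicate; 10 μM reference compound defined full inhibition.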

In another test the target is T2, CDK4/Cyclin D1 (Homo sapiens, UniProt P11802).
T2 construct: purchased ProQinase; host or cells: insect cell
Put plainly: CDK4/CyclinD1 Enzymatic Activity Assay (TR-FRET). The test is classed as biochemical. To be noted: ATP 2 mM final, read-out: CDK4_D1 IC50. In outline:
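Insect-cell-expressed CDK4/Cyclin D1 (1 nM) with ULight-4E-BP1 (100 nM) and 2 mM ATP in HEPES pH 7.4; 9-dose 3-fold compound series preincubated 20 min, reaction started with 10 mM MgCl2, 45 min at 37° C. Europium anti-P-4E-BP1 TR-FRET read; IC50 from 4-parameter Hill fit.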

T2 sequence (P11802 whole entry): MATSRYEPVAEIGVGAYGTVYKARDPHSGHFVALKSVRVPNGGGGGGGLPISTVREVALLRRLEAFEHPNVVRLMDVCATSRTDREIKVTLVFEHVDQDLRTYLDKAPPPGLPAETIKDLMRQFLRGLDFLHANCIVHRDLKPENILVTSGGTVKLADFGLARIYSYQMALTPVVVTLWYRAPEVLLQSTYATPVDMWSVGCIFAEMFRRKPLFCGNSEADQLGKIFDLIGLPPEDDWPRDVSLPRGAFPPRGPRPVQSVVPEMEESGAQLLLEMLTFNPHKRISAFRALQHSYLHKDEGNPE
T2 sequence (P24385 whole entry partner): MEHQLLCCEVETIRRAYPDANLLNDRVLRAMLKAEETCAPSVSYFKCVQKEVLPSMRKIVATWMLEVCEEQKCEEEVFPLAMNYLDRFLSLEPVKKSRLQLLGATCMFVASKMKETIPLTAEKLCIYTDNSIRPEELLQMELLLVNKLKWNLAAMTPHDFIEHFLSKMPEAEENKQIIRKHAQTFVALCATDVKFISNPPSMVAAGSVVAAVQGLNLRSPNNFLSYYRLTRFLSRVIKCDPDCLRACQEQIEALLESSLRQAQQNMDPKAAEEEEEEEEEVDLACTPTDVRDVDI

As for `CS(=O)(=O)N1CCC(Nc2ncc(C(F)(F)F)c(-c3cc(C(N)=O)ns3)n2)CC1` [Example 84, 5-(2-((1-(methylsulfonyl)piperidin-4-yl)amino)-5-(trifluoromethyl)pyrimidin-4-yl)isothiazole-3-carboxamide], the IC50 on CDK2/Cyclin E2, in the test on OVCAR3 p-RB and at CDK4/Cyclin D1 was not above 100 nM each time.
Take `Cc1sc(-c2nc(N[C@H]3CCN(S(=O)(=O)c4cnn(C)c4)C[C@H]3C)ncc2C(F)(F)F)cc1C#N` [Example 85, 2-methyl-5-(2-(((3R,4S)-3-methyl-1-((1-methyl-1H-pyrazol-4-yl)sulfonyl)piperidin-4-yl)amino)-5-(trifluoromethyl)pyrimidin-4-yl)thiophene-3-carbonitrile]: the IC50 is not above 100 nM at CDK2/Cyclin E2, 100 to 500 nM with OVCAR3 p-RB and 100 to 500 nM at CDK4/Cyclin D1.
`Cc1sc(-c2nc(N[C@H]3CCN(S(=O)(=O)c4c[nH]cn4)C[C@H]3C)ncc2C(F)(F)F)cc1C#N` [Example 86, 5-(2-(((3R,4S)-1-((1H-imidazol-4-yl)sulfonyl)-3-methylpiperidin-4-yl)amino)-5-(trifluoromethyl)pyrimidin-4-yl)-2-methylthiophene-3-carbonitrile]: the 50% inhibitory concentration (IC50) at CDK2/Cyclin E2 was not above 100 nM; in the test with OVCAR3 p-RB, more than 500 nM; on CDK4/Cyclin D1 it was more than 500 nM.
Regarding `C[C@@H]1CN(S(=O)(=O)c2cnn(CC#N)c2)CC[C@@H]1Nc1ncc(C(F)(F)F)c(-c2cc(C(N)=O)cs2)n1` [Example 87, 5-(2-(((3R,4S)-1-((1-(Cyanomethyl)-1H-pyrazol-4-yl)sulfonyl)-3-methylpiperidin-4-yl)amino)-5-(trifluoromethyl)pyrimidin-4-yl)thiophene-3-carboxamide], the IC50 on CDK2/Cyclin E2, in the test with OVCAR3 p-RB and on CDK4/Cyclin D1 was not above 100 nM in each case.
For `Cc1sc(-c2nc(NC3CCN(S(=O)(=O)c4cnn(CC#N)c4)CC3)ncc2C(F)(F)F)cc1C#N` [Example 88, 5-(2-((1-((1-(cyanomethyl)-1H-pyrazol-4-yl)sulfonyl)piperidin-4-yl)amino)-5-(trifluoromethyl)pyrimidin-4-yl)-2-methylthiophene-3-carbonitrile], the IC50 at CDK2/Cyclin E2, in the test on OVCAR3 p-RB and at CDK4/Cyclin D1 was not above 100 nM in each case.
As for `CC(O)c1cnc(-c2nc(NC3CCN(S(=O)(=O)c4cnn(C)c4)CC3)ncc2C(F)(F)F)s1` (stereo not drawn) [Example 89, 1-(2-(2-((1-((1-Methyl-1H-pyrazol-4-yl)sulfonyl)piperidin-4-yl)amino)-5-(trifluoromethyl)pyrimidin-4-yl)thiazol-5-yl)ethan-1-ol], the IC50 at CDK2/Cyclin E2, with OVCAR3 p-RB and on CDK4/Cyclin D1 was not above 100 nM in each case.
Consider `CC(O)c1sc(-c2nc(NC3CCN(S(=O)(=O)c4cnn(C)c4)CC3)ncc2C(F)(F)F)cc1C#N` (stereo not drawn) [Example 90, 2-(1-Hydroxyethyl)-5-(2-((1-((1-methyl-1H-pyrazol-4-yl)sulfonyl)piperidin-4-yl)amino)-5-(trifluoromethyl)pyrimidin-4-yl)thiophene-3-carbonitrile], for which the IC50 on CDK2/Cyclin E2, in the test with OVCAR3 p-RB and at CDK4/Cyclin D1 was not above 100 nM in each case.
Take `Cn1cc(S(=O)(=O)N2CCC(Nc3ncc(C(F)(F)F)c(-c4cc(C#N)ns4)n3)CC2)cn1` [Example 91, 5-(2-((1-((1-methyl-1H-pyrazol-4-yl)sulfonyl)piperidin-4-yl)amino)-5-(trifluoromethyl)pyrimidin-4-yl)isothiazole-3-carbonitrile]: the IC50 was not above 100 nM on CDK2/Cyclin E2, 100 to 500 nM in the test on OVCAR3 p-RB and 100 to 500 nM on CDK4/Cyclin D1.
With `Cn1cnc(S(=O)(=O)N2CCC(Nc3ncc(C(F)(F)F)c(-c4nc(C(N)=O)cs4)n3)CC2)c1` [Example 92, 2-(2-((1-((1-Methyl-1H-imidazol-4-yl)sulfonyl)piperidin-4-yl)amino)-5-(trifluoromethyl)pyrimidin-4-yl)thiazole-4-carboxamide], the IC50 at CDK2/Cyclin E2, with OVCAR3 p-RB and on CDK4/Cyclin D1 was more than 500 nM each time.
